{
  "source": "patent US20230346889A9",
  "about": "“TREATMENT OF ACUTE HEART FAILURE” (AnaCardio R&D AB, priority 2019, published 2023)",
  "key": {"[1]": {"assay": "Plasma acyl ghrelin pharmacokinetics (custom ELISA)", "type": "in vivo, human", "protocol": "In samples dedicated for ghrelin measurements a protease inhibitor cocktail was prepared, consisting of 5.5 μl 10 mM KR-62436 (DPP4 inhibitor) in DMSO and a SIGMAFAST® protease inhibitor tablet (both produced by Sigma-Aldrich Corp., St. Louis, Mo., USA) dissolved in 2100 μl of distilled water (50×stock). Blood samples were drawn using 6 mL EDTA plasma tubes, immediately put on ice and 160 μl of the 50×protease inhibitor cocktail was added. Tubes were vortexed for 10 seconds and centrifuged at 4° C., 10 min, 2500 relative centrifugal force (RCF, or g). The resulting supernatant (plasma) was then pipetted into Eppendorf tubes (450 μl each) and immediately frozen at −70° C. until analyzed.\nPlasma concentrations of active (acylated) ghrelin were assayed by a custom ELISA using electrochemiluminescence detection. Plasma samples were thawed and vortexed. They were then analyzed in duplicate on 96-well multispot plates (Meso Scale Diagnostics, Rockville, Md., USA) coated with capture antibodies against acyl-ghrelin according to manufacturer instructions. The Meso Scale Diagnostics Sector Imager 2400 was used to read the plates. The coefficients of variation (CV %) calculated from plasma concentrations after curve fitting were 9.3/3.5 (intra/inter-assay CV %). The lower limit of detection was 3.2 ng/L and upper limit was set at 10,000 ng/L."}, "[2]": {"test_system": "isolated cardiomyocytes from SHAM and HF mice", "assay": "Cytosolic Ca2+ transients and cell shortening in isolated cardiomyocytes", "type": "cell-based, mouse", "conditions": "for cardiomyocyte fractional shortening (FS): 15 min ghrelin exposure, 100 nM, sham and post-MI HF mice; for cardiomyocyte Ca2+ transients (amplitude): SHAM and HF mice, vs placebo", "excerpt": "Twelve-week old C57BL6 mice were anesthetized with gas mixture of oxygen and isoflurane (2-3%). Myocardial infarction (MI) was induced in mice by permanent ligation of the left coronary artery, as previously described (Perrino et al., 2013). Briefly, mice underwent thoracotomy and subsequent left coronary ligation; ˜80% survived during the follow-up period (4-6 weeks). SHAM-operated animals underwent the same procedure without coronary artery ligation (SHAM). At study termination, after sedation, mice were euthanized through cervical dislocation.\nAfter euthanasia, single cardiomyocytes were isolated from the left and right ventricles (mouse hearts are dominated by left ventricles) and atria were excluded, following the protocols developed by the Alliance for Cellular Signalling (AfCS Procedure Protocol ID PP00000 125) as previously described (Pironti et al., 2016).\nMouse cardiomyocytes were incubated with a cell permeable form of fluorescent indicators Fluo-3 AM followed by washing for >5 min as previously described (Andersson et al., 2011). Cardiomyocytes were plated on laminin coated glass bottom dishes. The dishes were placed in a custom built perfusion/stimulation chamber and continuously perfused with O2/CO2 (95/5%) bubbled Tyrode solution with the following composition (in mM): NaCl 121, KCl 5.0, CaCl2 1.8, MgCl2 0.5, NaH2PO4 0.4, NaHCO3 24, EDTA 0.1, glucose 5.5. The cardiomyocytes were stimulated to contract using an electrical field between two platinum electrodes attached to the perfusion/stimulation chamber. […] Fluorescence was measured using a confocal microscope Bio-Rad MRC 1024 unit attached to a Nikon Diaphot inverted microscope (40-60×oil immersion lenses). Confocal images were analyzed off line using ImageJ (National Institutes of Health; available at http://rsb.info.nih.gov/ij). Line scan confocal images were obtained from paced cardiomyocytes with the line scan running along the long axis of the cell. Changes in the emitted fluorescence, representing changes in free cytoplasmic Ca^2+, were quantified. The amplitude of Ca^2+ transients was measured as the change in the fluo-3 fluorescence signal (F) divided by the fluorescence immediately before a stimulation pulse given under control conditions (FO). Ca^2+ transient decay time constant (Tau) was quantified by fitting the decay to an exponential decay function in the GraphPad Prism software (La Jolla, Ca, USA). Fractional cell shortening was calculated from the line scan images as the fractional change in the cell length at rest and during maximal contraction.\nThe myocytes were superfused with physiological buffer (Tyrode solution) or for the pharmacological experiments Tyrode+Ghrelin (100 nM) or D-Lys 3 (D-Lys 3 GHS-R1a antagonist 3 μM). All cells were perfused for 15 min with respective solution before measurements, except in some experiments where D-Lys 3 (3 μM) was introduced in perfusion system 10 minutes before adding Ghrelin. All experiments were performed at room temperature (˜24° C.).\nThe myocytes were superfused with physiological buffer (Tyrode solution) with or without Ghrelin (Bachem, Bubendorf, Switzerland) (100 nM). All cardiomyocytes were superfused for 15 min with respective solution before measurements. An antagonist against the ghrelin receptor GHS-r1a (D-Lys 3; 3 μM), was used in some experiments. In those experiments, D-Lys 3 was introduced in superfusion system 10 minutes before adding Ghrelin."}},
  "note": "Entries after “also recorded” stand apart in the source; their conditions may differ.",
  "data": [
    {"molecule": "CCCCCCCC(=O)OC[C@H](NC(=O)[C@H](CO)NC(=O)CN)C(=O)N[C@@H](Cc1ccccc1)C(=O)N[C@@H](CC(C)C)C(=O)N[C@@H](CO)C(=O)N1CCC[C@H]1C(=O)N[C@@H](CCC(=O)O)C(=O)N[C@@H](Cc1cnc[nH]1)C(=O)N[C@@H](CCC(N)=O)C(=O)N[C@@H](CCCNC(=N)N)C(=O)N[C@H](C(=O)N[C@@H](CCC(N)=O)C(=O)N[C@@H](CCC(N)=O)C(=O)N[C@@H](CCCNC(=N)N)C(=O)N[C@@H](CCCCN)C(=O)N[C@@H](CCC(=O)O)C(=O)N[C@@H](CO)C(=O)N[C@@H](CCCCN)C(=O)N[C@@H](CCCCN)C(=O)N1CCC[C@H]1C(=O)N1CCC[C@H]1C(=O)N[C@@H](C)C(=O)N[C@@H](CCCCN)C(=O)N[C@@H](CC(C)C)C(=O)N[C@@H](CCC(N)=O)C(=O)N1CCC[C@H]1C(=O)N[C@@H](CCCNC(=N)N)C(=O)O)C(C)C", "note": "[Ghrelin]", "values": [
      {"measurement": "plasma acyl ghrelin", "setting": "[1]; 2-5 days follow-up", "result": "normalized"},
      {"measurement": "plasma acyl ghrelin", "setting": "[1]; 30 minutes after infusion", "result": "near normalized"},
      {"measurement": "median plasma acyl ghrelin concentrations", "setting": "[1]; during infusion, treatment group", "result": "quickly reached near the maximum of the assay"},
      {"measurement": "level at 0.5 h", "setting": "[1]; human, plasma, 0.1 ug/kg/min, Infusion 30 min, iv 0.1 μg/kg/min, read-out: plasma acyl ghrelin (median, interquartile range)", "result": 6.11, "unit": "ng/mL"},
      {"measurement": "level at 1 h", "setting": "[1]; human, plasma, iv, 0.1 ug/kg/min, Infusion 60 min, read-out: plasma acyl ghrelin (median, interquartile range)", "result": 6.84, "unit": "ng/mL"},
      {"measurement": "level at 2 h", "setting": "[1]; human, plasma, iv, 0.1 ug/kg/min, Infusion 120 min, read-out: plasma acyl ghrelin (median, interquartile range)", "result": 6.54, "unit": "ng/mL"},
      {"measurement": "kinetics of Ca2+ transients (ROI and Tau)", "setting": "[2]", "result": "did not affect"},
      {"measurement": "cardiomyocyte fractional shortening (FS)", "setting": "[2]", "result": "increases contractility"},
      {"measurement": "cardiomyocyte fractional shortening (FS)", "setting": "[2]; listed as ghrelin", "result": "increased compared to placebo"},
      {"measurement": "cardiomyocyte Ca2+ transients (amplitude)", "setting": "[2]", "result": "did not differ"},
      {"measurement": "cardiomyocyte Ca2+ transients (amplitude)", "setting": "[2]; listed as ghrelin", "result": "not different; also recorded: no difference"}
    ]}
  ]
}
